In one assay the test system is NMDAR. The conditions noted are these: WT cortical cells, OGDR, 24 h after reperfusion; 10 μM (SAS 500 μM).
A further assay concerns WT cortical cells. Kind of assay: Lactate dehydrogenase (LDH) level in WT cortical cells after OGD/OGDR. The assay is classed as cell-based, mouse. To be noted: OGDR, 24 h after reperfusion, 10 μM (SAS 500 μM). The method, then:
(§1) Primary cortical cells were prepared from cerebral cortices of wild-type C57BL/6J or homozygote xCT^−/− mouse embryos in embryonic day 17 as previously described with modification (Goldberg M P, Choi D W. Combined oxygen and glucose deprivation in cortical cell culture: calcium-dependent and calcium-independent mechanisms of neuronal injury. The Journal of neuroscience: the official journal of the Society for Neuroscience, 1993; 13(8):3510-24, which is incorporated here by reference).
The LDH assay was carried out at 24 hours after reperfusion. *P<0.01 compared to drugs-untreated cells (Un), one-way ANOVA. Error bars denote the standard deviation among triplicate experiments.

For a further assay, the system named is astrocytes. In words: Annexin V flow cytometric apoptosis assay after OGDR, astrocytes. The assay is classed as cell-based, mouse. The conditions noted are these: WT cortical cells, 24 h after reperfusion, 10 μM (SAS 500 μM). The method, then:
(§2) Annexin V staining was performed to determine cell apoptosis using the Annexin V-FITC Apoptosis Detection Kit (Sigma-Aldrich) for 10 min at room temperature according to the manufacturers instructions, and then flow cytometric analysis was performed.
(§3) The three-color staining flow cytometric assay using allophycocyanin-microtubule-associated protein 2 (MAP2) for neuron staining, phycoerythrin (PE)-GFAP for astrocyte staining and FITC-annexin V for apoptotic cell staining was performed to count the numbers of neurons, astrocytes, and apoptotic cells. FIGS. 21A and […] show the results of apoptosis in wild type (WT) and xCT^−/− cortical cells treated with OGDR at 24 h after reperfusion. *P<0.01 compared to WT without OGDR, Student's t-test. ^#P<0.01 compared to WT with OGDR, Student's t-test. From FIGS. 21A and 21B it was observed that that smaller numbers of apoptotic cells were present in xCT^−/− neurons and astrocytes after OGDR treatment.
On the technique in general: In flow cytometry, cells or beads pass a laser one at a time.

The subject of assay [1] is cortical infarct. Kind of assay: TTC staining infarct volume in rats with CIR. Format: in vivo, rat. The conditions noted are these: 30 mg/kg ip for 3 days, compared to vehicle.
For the next assay, the system named is neurons. In words: Annexin V flow cytometric apoptosis assay after OGDR, neurons. Format: cell-based, mouse. To be noted: WT cortical cells, 24 h after reperfusion, 10 μM (SAS 500 μM). The method, then: as §2, §3
A further assay concerns the target T1, system xc− (Mus musculus, UniProt Q9WTR6).
T1 construct: endogenous in cells; host or cells: primary cortical cells from E17 wild-type C57BL/6J mouse embryos, exposed to OGDR
T1 sequence (Q9WTR6 1-502): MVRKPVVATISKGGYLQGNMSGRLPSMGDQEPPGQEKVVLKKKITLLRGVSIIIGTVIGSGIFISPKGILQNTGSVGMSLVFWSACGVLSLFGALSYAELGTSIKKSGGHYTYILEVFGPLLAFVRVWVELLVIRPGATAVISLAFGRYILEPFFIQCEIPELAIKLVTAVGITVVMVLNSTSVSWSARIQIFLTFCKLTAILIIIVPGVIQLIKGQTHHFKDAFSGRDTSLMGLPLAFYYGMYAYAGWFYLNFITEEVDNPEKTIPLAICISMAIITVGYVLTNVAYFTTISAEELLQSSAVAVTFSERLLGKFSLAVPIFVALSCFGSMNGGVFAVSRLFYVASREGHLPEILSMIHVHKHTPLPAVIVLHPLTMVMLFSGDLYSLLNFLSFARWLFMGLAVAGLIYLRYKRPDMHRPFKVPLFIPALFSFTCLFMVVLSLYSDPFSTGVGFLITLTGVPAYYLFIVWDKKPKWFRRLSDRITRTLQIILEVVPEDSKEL
T1 sequence (P10852 1-526 partner): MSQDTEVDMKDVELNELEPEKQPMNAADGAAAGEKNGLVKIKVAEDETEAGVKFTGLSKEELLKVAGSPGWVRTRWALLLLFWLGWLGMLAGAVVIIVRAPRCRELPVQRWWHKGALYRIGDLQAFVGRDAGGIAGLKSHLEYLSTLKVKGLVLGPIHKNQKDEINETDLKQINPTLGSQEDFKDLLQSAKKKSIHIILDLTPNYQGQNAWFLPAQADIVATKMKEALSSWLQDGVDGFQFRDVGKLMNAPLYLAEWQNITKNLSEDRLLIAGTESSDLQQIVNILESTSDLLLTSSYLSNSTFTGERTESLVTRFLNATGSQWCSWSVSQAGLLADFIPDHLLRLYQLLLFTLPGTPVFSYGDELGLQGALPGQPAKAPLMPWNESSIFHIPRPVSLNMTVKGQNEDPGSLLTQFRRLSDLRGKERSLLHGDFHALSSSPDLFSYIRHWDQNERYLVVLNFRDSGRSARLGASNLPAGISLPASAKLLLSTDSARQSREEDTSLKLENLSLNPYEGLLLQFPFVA
In words: Extracellular glutamate content in WT cortical cells exposed to OGDR. To be noted: 24 h after reperfusion, 10 μM (SAS 500 μM). The assay is classed as cell-based. The method, then: as §1

In a further assay the test system is rats with CIR. In words: Neurological behavioral measurements in rats with CIR. The assay is classed as in vivo, rat.
The subject of assay [2] is cortical infarct. In words: MRI infarct volume in rats with CIR. The assay is classed as in vivo, rat. To be noted: day 28 after reperfusion.
Procedure: (§4) Eight to ten-week-old male adult male Sprague-Dawley rats, C57BL/6J mice and xCT^−/− mice were anesthetized with 1.5% isoflurane in oxygen, allowed breathing spontaneously, and body temperature was maintained at 37° C. with a heat lamp during surgery for right middle cerebral artery ligation and bilateral common carotid artery clamping as previously described (Chen S T, Hsu C Y, Hogan E L, Maricq H, Balentine J D. A model of focal ischemic stroke in the rat: reproducible extensive cortical infarction. Stroke; a journal of cerebral circulation. 1986; 17(4):738-43, which is incorporated here by reference). Animals were subjected to transient cerebral ischemia for 90 min in rats and 2 h in mice.
MRI was performed on rats under anesthesia in a General Electric imaging system (R4; GE) at 3.0 T. Brains were scanned in 6-8 coronal image slices, each 2 mm thick without any gaps. […] The area of infarct was drawn manually from slice to slice, and the volume was then calculated by internal volume analysis software (Voxtool; GE) (Shyu W C, Lin S Z, Chiang M E, Chen D C, Su C Y, Wang H J, et al. Secretoneurin promotes neuroprotection and neuronal plasticity via the Jak2/Stat3 pathway in murine models of stroke. The Journal of clinical investigation. 2008; 118(1):133-48, which is incorporated by reference). […]
The test system of a further assay is ischemic cortex. In words: Microdialysis of extracellular glutamate in ischemic cortex of rats with CIR. The assay is classed as in vivo, rat.
A further assay has as its system TUNEL-positive cells. In words: TUNEL histochemistry in the ipsilateral cerebral hemisphere of rats with CIR. The assay is classed as in vivo, rat.

Each structure is given as a SMILES string.

Procedure for TUNEL-positive cells: Animals were subjected to transient cerebral ischemia for 90 min in rats and 2 h in mice.
To detect apoptosis, a TUNEL staining Kit (DeadEnd Fluorimetric TUNEL system; Promega) was used for the TUNEL assay (Shyu W C, Lin S Z, Chiang M F, Chen D C, Su C Y, Wang H J, et al. Secretoneurin promotes neuroprotection and neuronal plasticity via the Jak2/Stat3 pathway in murine models of stroke. The Journal of clinical investigation. 2008; 118(1):133-48, which is incorporated by reference).
Rats were treated intraperitoneal injection with either vehicle, SAS (5 mg/kg/day) or the mixture of sulfapyridine (5-ASA, 3.12 mg/kg/day) and salicylate (SP, 1.72 mg/kg) for 3 days after brain ischemia.
Procedure for ischemic cortex: as §4
Samples were diluted in 20 mM borate buffer at pH 9.0 and were derivatized for 1 min with N-tert-butyloxycarbonyl-L-cysteine and o-phthaldialdehyde. Samples then were separated in a 5-mm C18 reverse-phase column (220×4.6 mm) Sheri-5 (Brownlee), and glutamate was monitored by fluorescence (334 nm excitation and 433 nm emission) using an RF-10AXL fluorescence detector (Shimadzu). Standards of glutamate were assayed before and after the dialysis samples. […]

As for `CNC(=O)c1cc(Oc2ccc(NC(=O)Nc3ccc(Cl)c(C(F)(F)F)c3)cc2)ccn1` [sorafenib], the “hyperfunction of NMDAR (binding radioactivity of 18F-FSAG)” value in the assay on NMDAR is given as “inhibited”. Besides, the LDH levels result in the assay with WT cortical cells was “inhibited”. For the same compound, the apoptosis in astrocytes entry in the assay on astrocytes is “inhibited”. In the assay on cortical infarct [1], the “cortical infarct volume (TTC staining)” value is “significantly smaller”. For the same compound, the apoptosis in neurons result in the assay on neurons is “inhibited”. For the same compound, the “OGDR-induced glutamate release (extracellular glutamate content)” value at system xc− is reported as “inhibited”.

For the compound `O=C(O)c1cc(/N=N/c2ccc(S(=O)(=O)Nc3ccccn3)cc2)ccc1O` [sulfasalazine], the “locomotor activity (number of vertical movements, vertical activity, vertical movement time)” value in the assay with rats with CIR (between 7 and 28 days after CIR, compared with controls) was “significantly higher”. The “improvement in grip strength” value with rats with CIR (day 28 after reperfusion, compared with control groups) is reported as “higher percentage of improvement”. The body asymmetry result in the assay with rats with CIR (days 7 to 28, compared with control rats) is reported as “significantly reduced”. For the same compound, in the assay with cortical infarct [2], the “cortical infarct size (MRI)” value is listed as “remarkable size reductions”. For the same compound, the “extracellular glutamate content in ischemic cortex” value in the assay with ischemic cortex (5 mg/kg/day BID for 3 days, 4 to 72 h after reperfusion) is on record as “reduction”. Moreover, the “suppression of glutamate efflux in ischemic cortex at different dosages” value in the assay on ischemic cortex (different dosages) is reported as “inhibited CIR-induced glutamate release in a dose-dependent manner”. Also, the “hyperfunction of NMDAR (binding radioactivity of 18F-FSAG)” value in the assay on NMDAR is reported as “inhibited”. Besides, in the assay on WT cortical cells, the LDH levels entry is given as “inhibited”. In the assay on astrocytes, the apoptosis in astrocytes entry is “inhibited”. Also, the apoptosis in neurons entry in the assay with neurons is “inhibited”. The “OGDR-induced glutamate release (extracellular glutamate content)” value on system xc− is on record as “inhibited”. Besides, the “inhibition of TUNEL-positive cells at different dosages” value in the assay with TUNEL-positive cells (different dosages) was “decreased CIR-induced apoptosis in a dose-dependent manner”. The “number of TUNEL-positive cells” value with TUNEL-positive cells (ischemic penumbra, 24 h after reperfusion) is given as “significantly reduced”.

Values taken from US20160199393A1, “METHODS OF TREATING BRAIN ISCHEMIA OR HYPOXIA” (China Medical University, priority 2015, published 2016).
